Entries after “also recorded” stand apart in the source; their conditions may differ. Where two headings read alike, the source gives them in different places.
Key:
[1] = test system: mice exposed to an oxygen pressure of 3 atm; experiment: Survival under oxygen pressure of 3 atm, mice (Table 15); type: in vivo, F1 (CBAx57B1); conditions: for Number of survived animals: mice, 3 atm, 5 hours
Experimental: (§1) Animals were exposed to oxygen under increased pressure in a hyperbaric chamber <<Mana-2≤≤ for treatment of infants above 1 year, which was adjusted for the experiments on animals. The hyperbaric chamber design permitted to create excessive pressure up to 3 atm and to observe animal behavior from outside.
(§2) The experiments were performed on males of F1 (CBAx57B1) mice line and on males of Wistar rat line. Animals were placed in the hyperbaric chamber in plastic boxes and the atmospheric air was replaced by oxygen. The period of compression-decompression was 10 minutes. The exposure of the animals to an oxygen pressure of 3 atm during a period of 2 hours caused only some increase in their motion activity. Further staying of rats and mice in those conditions led to a decrease in the motion activity, to asphyxia with short periods of excitement and cramps. The death of some animals was registered after 2.5-3 hours, 50% after 4 hours, and 75% of mice and 100% of rats were dead after 5 hours.
(§3) When the influence of Difetur and Etyron was studied, the animals were exposed to an oxygen pressure of 3 atm during 5 hours if not otherwise specified. Preparations were injected 5-10 minutes before the session.

[2] = test system: rats exposed to an oxygen pressure of 3 atm; experiment: Survival under oxygen pressure of 3 atm, rats (Table 15); type: in vivo, Wistar rat; conditions: 5 hours
Experimental: as §1, §2, §3

[3] = in vivo, cited from earlier work
[4] = test system: arterial blood pressure; experiment: Clinical testing under spinal epidural anesthesia; type: in vivo, patients; conditions: urological operations
Experimental: This experiment was conducted at the General Anesthesia Department of the First Republican Hospital of Moldova. The goal of this clinical study was to estimate the ability of Difetur to act as a hypertensive drug, compared to the known adrenergic drug--ephedrine. The experiments were performed on one hundred patients, underwent urological operations under spinal epidural anesthesia, their age being between 20 and 80. The following findings are presented in view of Difetur: […]

[5] = Pathomorphological examination of internal organs; type: in vivo, mice, dogs; conditions: mean lethal and sublethal doses
Excerpt: The disturbance to blood circulation has a reversible character and as a rule, it normalized within 7-10 days after the preparation had no longer any effect.

[6] = test system: acid-base balance and gas composition of arterial blood; experiment: Acid-base balance and gas composition of arterial blood in hemorrhagic shock (Table 6); type: in vivo, cats
Experimental: (§4) The influence of S-ethylisothiouronium diethylphosphate on the major indices of the blood acid-base state (AAS) and gas content in hemorrhagic shock was studied at a dose of 5 mg/kg. The cats were narcotized intraperitoneally with pentobarbital sodium (nembutal) at a dose of 40 mg/kg. The blood loss was caused by blood-letting from the common carotid artery in an amount of 3.2% of the animal body mass, which approximately corresponds to 45-47% of the blood circulation volume. The blood-letting was carried out during 3-5 minutes. Tension characteristics of oxygen and carbon dioxide in arterial (PaO2, PaCO2) and mixed venous (PvO2, PvCO2) blood, pHa and pH were studied by Astrup micromethod. The hemoglobin content (Hb) was determined by the cianohemoglobin method. Bicarbonate ion content /HCO3 was calculated with the help of the Severinghause ruler. Calculations were carried out on the CM-1403-02 computer in the Forhtran language program. Indices of the acid-base balance and blood gas content were studied in the initial state, on the 30th minute after acute bleeding as well as on 2nd, 10th, 30th, and 60th minute after the medicine injection. The substance was injected singly intravenously on the 30th minute after the blood-letting.
(§5) In the test group (n=6), S-ethylisothiouronium diethylphosphate was injected at a dose of 5 mg/kg.

[7] = test system: acid-base balance and gas composition of mixed venous blood; experiment: Acid-base balance and gas composition of mixed venous blood in hemorrhagic shock (Table 7); type: in vivo, cats; conditions: 5 mg/kg i.v.; for Bicarbonate ion content (HCO3 a) / Buffer bases (BBa) / Buffer bases shift (BBa) / Carbonic acid gas tension (PaCO2): mixed venous blood
Experimental: as §4, §5

[8] = test system: rats exposed to an oxygen pressure of 6 atm; experiment: Toxic effect of oxygen at a pressure of 6 atm in rats (Tables 16-18); type: in vivo, white rats; conditions: 20 mg/kg i.p.
Experimental: Experiments on the toxic effect of oxygen at a pressure of 6 atm were carried out similarly in a hyperbaric chamber C-203 (chamber volume 0.45 m^3), on white rats, during 50 minutes. The preparation was injected intraperitoneally at a dose of 20 mg/kg. In the controls, 2 ml/kg of water for injections was injected intraperitoneally. After decompression the rats were decapitated and the glucose content, urea content, ureal nitrogen and total hemoglobine content were determined in the blood serum, as well as the index <<lung mass in gr./body mass in gr. X 100>> (i.e. lung coefficient).

[9] = 5 mg/kg i.v., 10 min after injection
[10] = 5 mg/kg i.v., 30 min after injection
[11] = 5 mg/kg i.v., 60 min after injection

Question: For CCSC(=N)N [S-ethylisothiouronium diethylphosphate], which “Number of survived animals” value ([1]; 5 mg/kg) is on record?
Answer: 25%

Question: What about the “Number of survived animals” value ([1]; 10 mg/kg) of the same molecule?
Answer: 65%

Question: What about the “Number of survived animals” value ([1]; 20 mg/kg) of the same molecule?
Answer: 88%

Question: What about the “Oxygen protective activity compared with Etyron” value ([1]; mouse, in vivo) of the same molecule?
Answer: exceed Etyron in oxygen protective activity

Question: What about the “Number of survived animals” value ([2]; 5 mg/kg) of the same molecule?
Answer: 60%

Question: And the “Number of survived animals” value ([2]; 10 mg/kg)?
Answer: 50%

Question: And the “Number of survived animals” value ([2]; 20 mg/kg)?
Answer: 70%

Question: And the “Radioprotective effect in words” value [3]?
Answer: radioprotective effect

Question: What about the “Radioprotective effect in words” value ([3]; listed as Difetur) of the same molecule?
Answer: distinct radioprotective effect

Question: And the “Duration of hypertensive action” value [4]?
Answer: 40 to 60 min

Question: What about the “Time until blood pressure attains the initial value” [4] of the same molecule?
Answer: ≤ 90 min

Question: What about the Clinical safety findings ([4]; listed as Difetur) of the same molecule?
Answer: No cases of secondary hypertension were observed; also recorded: No complications of allergic type of the blood circulation or respiration were observed

Question: What about the “Effect on patient's blood pressure in words” value ([4]; listed as Difetur) of the same molecule?
Answer: prevented the decrease in the patient's blood pressure; also recorded: blood pressure of the patients remained stable; also recorded: rapid and prolonged effect on arterial blood pressure

Question: What about the Pathomorphological findings [5] of the same molecule?
Answer: moderately pronounced signs of hemodynamic disturbance; also recorded: No prounced inflammatory, distrophic or necrobiotic changes of internal organs were observed; also recorded: In some cases, signs of compensatory-adaptation reactions of liver

Question: What about the “Time to normalization of blood circulation disturbance” value [5] of the same molecule?
Answer: 7 to 10 days

Question: What about the “Bicarbonate ion content increase, arterial blood” value ([6]; 5 mg/kg i.v., 10th minute) of the same molecule?
Answer: 5%

Question: What about the “Bicarbonate ion content increase, arterial blood” value ([6]; 5 mg/kg i.v., 30th minute) of the same molecule?
Answer: 16%

Question: And the “Bicarbonate ion content (HCO3 a)” value [6, 9]?
Answer: 15.583 ± 1.333 mmol/L

Question: And the “Buffer bases (Bba)” value [6, 9]?
Answer: 34.150 ± 1.364 mmol/L

Question: And the “Buffer bases shift (Bea)” value [6, 9]?
Answer: -7.866 ± 1.095 mmol/L

Question: What about the “Carbonic acid gas tension (PaCO2)” value [6, 9] of the same molecule?
Answer: 28.616 ± 2.858 mm Hg

Question: And the “Oxygen tension (PaO2)” value [6, 9]?
Answer: 94.483 ± 6.012

Question: What about the pHa [6, 9] of the same molecule?
Answer: 7.252±0.018

Question: What about the “Decrease of partial pressure of carbon dioxide (arterial and venous blood)” value ([6]; 5 mg/kg i.v., 10 minute, vs 30th minute after blood letting) of the same molecule?
Answer: 9%

Question: And the “Bicarbonate ion content (HCO3 a)” value [6, 10]?
Answer: 17.083 ± 1.065 mmol/L

Question: What about the “Buffer bases (Bba)” value [6, 10] of the same molecule?
Answer: 34.966 ± 3.534 mmol/L

Question: And the “Buffer bases shift (Bea)” value [6, 10]?
Answer: -8.016 ± 1.436 mmol/L

Question: And the “Carbonic acid gas tension (PaCO2)” value [6, 10]?
Answer: 31.083 ± 1.933 mm Hg

Question: What about the “Oxygen tension (PaO2)” value [6, 10] of the same molecule?
Answer: 95.466 ± 7.144

Question: And the pHa [6, 10]?
Answer: 7.310±0.064

Question: What about the “Bicarbonate ion content (HCO3 a)” value [6, 11] of the same molecule?
Answer: 15.900 ± 3.033 mmol/L

Question: What about the “Buffer bases (Bba)” value [6, 11] of the same molecule?
Answer: 32.733 ± 5.616 mmol/L

Question: And the “Buffer bases shift (Bea)” value [6, 11]?
Answer: -9.450 ± 3.903 mmol/L

Question: And the “Carbonic acid gas tension (PaCO2)” value [6, 11]?
Answer: 35.217 ± 7.339 mm Hg

Question: And the “Oxygen tension (PaO2)” value [6, 11]?
Answer: 85.550 ± 6.575

Question: And the pHa [6, 11]?
Answer: 7.208 ± 0.036

Question: And the “Effect on acid-base balance and blood gases in words” value ([6]; arterial blood, hemorrhagic shock)?
Answer: does not influence negatively the acid-base balance; also recorded: corrects the metabolic acidosis caused by the loss of blood; also recorded: it had the tendency to increase in the arterial blood, and to decrease in the venous blood

Question: What about the “Oxygen tension (PvO2)” value ([7]; 10 min) of the same molecule?
Answer: 41.866 ± 11.242

Question: And the pHv ([7]; 10 min after injection)?
Answer: 7.252 ± 0.011

Question: And the “Oxygen tension (PvO2)” value ([7]; 30 min)?
Answer: 40.533 ± 11.332

Question: What about the pHv ([7]; 30 min after injection) of the same molecule?
Answer: 7.222 ± 0.016

Question: What about the “Oxygen tension (PvO2)” value ([7]; 60 min) of the same molecule?
Answer: 27.783 ± 4.824

Question: What about the pHv ([7]; 60 min after injection) of the same molecule?
Answer: 7.150 ± 0.130

Question: And the “Bicarbonate ion content (HCO3 a)” value ([7]; 10 min)?
Answer: 17.116 ± 1.576 mmol/L

Question: And the “Buffer bases (BBa)” value ([7]; 10 min)?
Answer: 34.500 ± 2.342 mmol/L

Question: And the “Buffer bases shift (BBa)” value ([7]; 10 min)?
Answer: -8.500 ± 1.491 mmol/L

Question: And the “Carbonic acid gas tension (PaCO2)” value ([7]; 10 min)?
Answer: 40.516 ± 4.340 mm Hg

Question: What about the “Bicarbonate ion content (HCO3 a)” value ([7]; 30 min) of the same molecule?
Answer: 16.150 ± 1.951 mmol/L

Question: And the “Buffer bases (BBa)” value ([7]; 30 min)?
Answer: 32.266 ± 3.254 mmol/L

Question: What about the “Buffer bases shift (BBa)” value ([7]; 30 min) of the same molecule?
Answer: -9.966 ± 1.388 mmol/L

Question: And the “Carbonic acid gas tension (PaCO2)” value ([7]; 30 min)?
Answer: 40.350 ± 4.611 mm Hg

Question: What about the “Bicarbonate ion content (HCO3 a)” value ([7]; 60 min) of the same molecule?
Answer: 17.800 ± 2.162 mmol/L

Question: And the “Buffer bases (BBa)” value ([7]; 60 min)?
Answer: 33.833 ± 3.943 mmol/L

Question: And the “Buffer bases shift (BBa)” value ([7]; 60 min)?
Answer: -11.266 ± 2.569 mmol/L

Question: And the “Carbonic acid gas tension (PaCO2)” value ([7]; 60 min)?
Answer: 55.533 ± 5.049 mm Hg

Question: What about the “Asphyxia, animal number” value ([8]; 36 rats) of the same molecule?
Answer: 0

Question: What about the “Generalized cramps, % of animals” value ([8]; 36 rats) of the same molecule?
Answer: 2.8%

Question: And the “Generalized cramps, animal number” value ([8]; 36 rats)?
Answer: 1

Question: And the “Lateral position, animal number” value ([8]; 36 rats)?
Answer: 0

Question: What about the “Number of perished rats” value ([8]; 36 rats) of the same molecule?
Answer: 0

Question: And the “Lung coefficient (lung mass in gr./body mass in gr. X 100)” value ([8]; Average ± SD, 16 animals)?
Answer: 0.474 ± 0.024

Question: What about the “Glucose (blood serum)” value ([8]; M ± m, n = 16) of the same molecule?
Answer: 5.765 ± 0.214

Question: And the “Hemoglobin (blood serum)” value ([8]; M ± m, n = 16)?
Answer: 2.028 ± 0.048

Question: And the “Urea (blood serum)” value ([8]; M ± m, n = 16)?
Answer: 4.643 ± 0.212

Question: And the “Urea Nitrogen (blood serum)” value ([8]; M ± m, n = 16)?
Answer: 2.163 ± 0.099

Question: What about the “Protection at 6 atm in words” value ([8]; rats, listed as Difetur) of the same molecule?
Answer: improve blood serum biochemical indices; also recorded: efficiently protect lungs from the toxic effect of increased oxygen pressure; also recorded: did not practically effect the hemoglobin content but considerably improved other indices; also recorded: significantly reduced the <<lung mass in gr./body mass>> index; also recorded: completely prevented animals' death and reduced other visible consequences of the oxygen poisoning

Source: patent US6160008A, “Pharmaceutical compositions comprising S-alkylisothiouronium derivatives” (priority 1996, dated 2000)
